Experimental data published in patent US8815935B2, “Inhibitors of protein prenyltransferases” (The Regents of the University of California, priority 2008, dated 2014).
Read-outs that look alike come from different tables or passages of the source. Blank lines part the entries; values can stand above or below the compound they belong to.

What was measured:
GGTase-I = target: T1, GGTase-I (Rattus norvegicus, UniProt P53610+Q04631); test: In vitro GGTase-I enzyme assay (IC50, kinetics); type: biochemical
T1 construct: purchased JENA BIOSCIENCE
Experimental: The GGTase-I assay was carried out using RhoA as a substrate protein, GGTase-I (JENA Bioscience) and [3H]geranylgeranyl pyrophosphate. Incubation was for 30 min at 37° C. GGTase-II (or RabGGTase) assay was carried out using YPTI as a substrate protein, GGTase-II (Calbiochem, San Diego, Calif.) plus REP1 (Calbiochem) and [3H]geranylgeranyl pyrophosphate. Incubation was for 30 min at 37° C. FIGS. 20D-20F show the three dimensional structure of GGTase I (D), FTsse (E) and GGTase II (F) which can be obtained from X-ray diffraction studies of protein crystals.
GGTase-I and FTase activities were determined by following the incorporation of radiolabeled isoprenoid [^3H]-geranylgeranyl or [^3H]-farnesyl into substrate proteins. FTase or GGTase-I (50 nM) were used to initiate reactions containing 0.4 μM of [^3H]-FPP or 0.5 μM of [^3H]-GGPP and 2 μM of MBP-tagged substrates (K-Ras4B for FTase; RhoA for GGTase-I) in 20 μl of buffer {50 mM Tris-HCl (pH 7.5), 10 mM MgCl2, […] and 5 mM DTT}. Inhibitors were added at the indicated concentrations. The final DMSO concentration was 2.5% for all samples.
Reactions were carried out for 10 min at 30° C. The reaction mixture was spotted onto a filter paper, treated with 10% trichloroacetic acid (TCA) followed by ethanol and acetone washing. The filter was counted using a scintillation counter. Kinetic assays in which the GGPP concentration was varied employed fixed concentrations of GGTase-I and RhoA, and reactions were carried out for 5 min. Similarly, fixed concentrations of GGTase-I and GGPP were used when the amount of RhoA was varied.

Jurkat cells = test: Jurkat cell growth inhibition; type: cell-based, human
Experimental: In Table 4 in cell GI50 values for the growth inhibition of Jurkat cells are reported. The GI50 value is the concentration of a test compound needed to produce 50% growth inhibition in the cell type listed. In Table 4 the isolated yield of each synthetic step for the synthesis of corresponding compounds are also reported.
Panc-1 cells (Pancreatic cancer cell line) and Jurkat cells (T-cell leukemia) were treated with 12.5 μM of P5-H6 or 12.5 μM of mP5-H6a for 72 hours. The cell number was counted as described in Example 5.
(§1) Cell viability was determined by Cell Counting Kit-8 (CCK-8, Dojindo, Kumamoto, Japan) as described previously (31). Cell viability was calculated relative to the DMSO control. Cell cycle profile was analyzed by flow cytometry as described previously (32).

K562 cells = test: K562 cell growth inhibition; type: cell-based, human; details: Tables 8-15; no unit printed there
Experimental: K562 cells are a cell line of human erythroleukemia cells. The K562 cells were treated with P3-E5, P5-H6 or GGTI-298 (a known GGTI compound illustrated in FIG. 27) for 72 hours and then cell number was counted using cell counting kit-8 (Dojindo, Gaithersburg, Md.). Cell viability relative to the DMSO control and the known GGTI compound is plotted in FIG. 23.
as §1

[1] = Tables 5, 14, read-out: In vitro (enzyme assay) IC50, GGTase I
[2] = Tables 8-15, no unit printed there (Table 7 head: μM unless otherwise specified), read-out: In vitro (GGTase I IC50)
[3] = Tables 3, 5, 7, read-out: In vitro (enzyme assay) IC50, GGTase I
[4] = Homo sapiens, Jurkat, Tables 4, 6, 7, read-out: Jurkat cell GI50
[5] = Tables 4, 6, 7, read-out: Jurkat cell GI50
[6] = Homo sapiens, Jurkat, Tables 8-15, no unit printed there, read-out: Jurkat GI50
[7] = Tables 8-15, no unit printed there, read-out: Jurkat GI50

SMILES: CC(C)(C)[C@@H]1C=C(C(=O)O)[C@H](c2ccc(Cl)c(Cl)c2)N1S(=O)(=O)c1ccccc1Br
IC50 (GGTase-I; [2]): 0.348 µM

SMILES: Cc1ccccc1S(=O)(=O)N1[C@@H](c2ccc(Cl)cc2)C(C(=O)O)=C[C@H]1C(C)(C)C [drawing 136]
IC50 (GGTase-I; [3]): 0.5 µM
GI50 (Jurkat cells; [4]): 20 µM

SMILES: Cc1ccccc1S(=O)(=O)N1[C@@H](c2ccc(Cl)cc2)C(C(=O)N[C@@H](Cc2ccccc2)C(N)=O)=C[C@H]1C(C)(C)C [P61-B07]
GI50 (Jurkat cells; [5]): 6.1 µM

SMILES: CCOC(=O)C1=C[C@@H](C(C)(C)C)N(S(=O)(=O)c2ccccc2C)[C@H]1c1ccc(Cl)cc1
IC50 (GGTase-I; [3]): > 50 µM
GI50 (Jurkat cells; [4]): 18.5 µM

SMILES: Cc1ccccc1S(=O)(=O)N1C(c2cccc(Cl)c2)C(C(=O)O)=CC[C@H]1c1ccc(Cl)cc1 (stereo partly drawn) [drawing 189]
IC50 (GGTase-I; [2]): 0.31 µM

SMILES: CC(C)(C)[C@@H]1C=C(C(=O)O)[C@H](c2ccc(Br)cc2)N1S(=O)(=O)c1ccccc1Cl
IC50 (GGTase-I; [2]): 0.349 µM

SMILES: Cc1ccccc1S(=O)(=O)N1[C@@H](c2ccc(Cl)cc2)C(C(=O)O)=C[C@H]1C(C)CC(C)(C)C (stereo partly drawn)
IC50 (GGTase-I; [2]): 3.4 µM

SMILES: Cc1ccccc1S(=O)(=O)N1[C@@H](c2ccc(Cl)cc2)C(C(=O)O)=C[C@H]1C(C)(C)C [drawing 143]
IC50 (GGTase-I; [2]): 0.5 µM
GI50 (Jurkat cells; [6]): 20 µM

SMILES: CC(C)(C)[C@@H]1C=C(C(=O)N[C@@H](Cc2ccccc2)C(N)=O)[C@H](c2ccc(Cl)c(Cl)c2)N1S(=O)(=O)c1c(Cl)cccc1Cl [P61-D10]
GI50 (Jurkat cells; [5]): 5.28 µM
GI50 (Jurkat cells; [7]): 5.28 µM
GI50 (K562 cells): 3.67 µM

SMILES: COC(=O)[C@H](Cc1ccccc1)NC(=O)C1=C[C@@H](C(C)(C)C)N(S(=O)(=O)c2ccccc2C)[C@H]1c1ccc(Cl)cc1 [P61A5]
GI50 (Jurkat cells; [7]): 10.5 µM
GI50 (K562 cells): 17 µM

SMILES: Cc1ccccc1S(=O)(=O)N1C(c2cccc(Cl)c2)C(C(=O)O)=CC[C@H]1c1ccc(Cl)cc1 (stereo partly drawn) [drawing 183]
IC50 (GGTase-I; [2]): 0.31 µM
GI50 (Jurkat cells; [6]): 20 µM

SMILES: Cc1ccccc1S(=O)(=O)N1[C@@H](c2ccc(Cl)cc2)C(C(=O)N[C@@H](Cc2ccccc2)C(N)=O)=C[C@H]1C(C)(C)C [P61-A06]
GI50 (Jurkat cells; [4]): 4.89 µM

SMILES: CC(C)(C)[C@@H]1C=C(C(=O)N[C@@H](Cc2ccccc2)C(N)=O)[C@H](c2ccc(Cl)c(Cl)c2)N1S(=O)(=O)c1ccccc1Br [drawing 167]
IC50 (GGTase-I; [2]): > 20 µM

Further lines, results first:

IC50 (GGTase-I; [1]): 0.011 µM
SMILES: O=C(N[C@@H](Cc1ccccc1)C(=O)O)C1=CC[C@@H](c2cccc(Br)c2)N(S(=O)(=O)c2ccc(F)cc2)[C@H]1c1cccc(Cl)c1 [P61-H07]

IC50 (GGTase-I; [3]): > 20 µM
SMILES: COC(=O)C(CC(C)C)NC(=O)C1=CCC(c2cccc(Cl)c2)N(S(=O)(=O)c2ccc(Cl)cc2)C1c1cccc(Cl)c1 (stereo not drawn) [P67-A05]

IC50 (GGTase-I; [3]): > 20 µM
GI50 (Jurkat cells; [4]): 3.81 µM
SMILES: COC(=O)C(CC(C)C)NC(=O)C1=CCC(c2cccc(Cl)c2)N(S(=O)(=O)c2ccc(Br)cc2)C1c1cccc(Cl)c1 (stereo not drawn) [P67-A09]

IC50 (GGTase-I; [3]): > 20 µM
GI50 (Jurkat cells; [4]): 8 µM
SMILES: COC(=O)C(CC(C)C)NC(=O)C1=CCC(c2cccc(Cl)c2)N(S(=O)(=O)c2ccc(Br)cc2)C1c1cccc(Br)c1 (stereo not drawn) [P67-A04]

IC50 (GGTase-I; [3]): > 20 µM
SMILES: COC(=O)C(CC(C)C)NC(=O)C1=CCC(c2cccc(Br)c2)N(S(=O)(=O)c2ccc(F)cc2)C1c1cccc(Cl)c1 (stereo not drawn) [P67-H11]

IC50 (GGTase-I; [1]): 0.18 µM
SMILES: CC(C)CC(NC(=O)C1=CCC(c2cccc(Cl)c2)N(S(=O)(=O)c2ccc(Cl)cc2)C1c1cccc(Cl)c1)C(=O)O (stereo not drawn) [P61-H08]

IC50 (GGTase-I; [1]): 0.21 µM
GI50 (Jurkat cells; Homo sapiens, Jurkat, Table 6, read-out: Jurkat cell GI50): 0.21 µM
SMILES: CC(C)CC(NC(=O)C1=CCC(c2cccc(Br)c2)N(S(=O)(=O)c2ccc(F)cc2)C1c1cccc(Cl)c1)C(=O)O (stereo not drawn) [P61-H06]

IC50 (GGTase-I; [2]): > 50 µM
GI50 (Jurkat cells; [6]): 6.1 µM
SMILES: COC(=O)[C@H](CC(C)C)NC(=O)C1=CC[C@@H](c2ccc(Cl)cc2)N(S(=O)(=O)c2ccccc2C)C1c1cccc(Cl)c1 (stereo partly drawn)

IC50 (GGTase-I; [2]): 39.1 µM
SMILES: CC(C)C[C@H](NC(=O)C1=CC[C@@H](c2cccc(Br)c2)N(S(=O)(=O)c2ccc(Cl)cc2)[C@H]1c1cccc(Cl)c1)C(N)=O
